# From patent US10308682B2, “Inhibition of tumor growth with aggregates of small molecules” (BRANDEIS UNIVERSITY, priority 2013, dated 2019)
# Legend:
# [1] = Thioflavin T fluorescence quantification of aggregates of 1; type: physicochemical; conditions: ThT emission, PBS buffer
# HeLa cells [2] = assay: Flow cytometry cell-cycle analysis of HeLa cells; type: cell-based; conditions: 400 μM, 24 h
# Experimental: (§1) FIG. 3 depicts the response of cancer cells toward molecular aggregates of 1. (a) Intracellular concentration of 1 in HeLa cells treated with 1 for 12 h at different temperatures measure by LC-MS (left bar=37° C.; right bar=4° C.). (b) Confocal images of FITC annexin V and PI stained HeLa cells without incubation with 1 (live cells), HeLa cells treated with 400 μM of 1 for 36 h, and necrotic HeLa cells (induced by DMSO). Scale bar=20 μm. (c) Fluorescence emission of 7-AAD and 1 in cell lysate (15,000 cell/mL) at λex=488 nm. (d) Cell cycle analysis, by flow cytometry, of HeLa cells treated with 0, 300 or 400 μM of 1 for 24 h. Depletion of G2/M phase occurs in cells treated with 400 μM of 1. (e) Cell migration assay of HeLa cells treated with 0, 300, 400 or 500 μM of 1. The gaps were created on the HeLa cells of 100% confluence in 24 well plates, and measured after incubation for 18 h.
# (§2) Because apoptosis associates with cell cycle, we examined the effect of the aggregates of 1 on the cell cycle. […] The cell-cycle distribution of the HeLa cells incubated with 400 μM of 1 indicates significant decrease of the peaks of S phase and G2/M phase. […] The slight right shift of the whole spectra results from the overlapping of emission of 7-AAD and 1 (FIG. 3c). But such shift barely hampers the distribution of cell-cycle of the spectra. The aggregates of 1 also delay the migration of the HeLa cells.
# HeLa cells [3] = assay: Cell migration assay of HeLa cells; type: cell-based; conditions: 18 h
# Experimental: as §1, §2
# tubulin heterodimers = target: T1, tubulin heterodimers (Sus scrofa, UniProt P02550+P02554); assay: In vitro tubulin polymerization assay; type: biochemical
# T1 construct: purchased Cytoskeleton
# Description: Tubulin polymerization assay in the presence of 1. In vitro tubulin polymerization reactions in (a) as prepared or (c) filtered reaction cocktail without 1 (control) or with different concentrations of 1. The amount of microtubule is in proportion to optical density at 340 nm. The calculated polymerization rate (Vmax) and the final tubulin polymer mass vs concentrations of 1 from tubulin polymerization in (b) as prepared or (d) filtered reaction cocktail. Negative stained TEM images of molecular aggregates of 1 binding with tubulin. Buffer (control) or 1 (final concentration at 200 to 500 μM) was introduced into reaction cocktail containing fully assembled microtubule (after 60 min of polymerization). The amount of microtubule remain unchanged after 30 min. (e) Molecular aggregates of 1 (400 μM) incubated with tubulins heterodimers in general tubulin buffer. Scale bar=40 nm. White arrows point at tubulin clusters on the molecular aggregates of 1. Confocal images of tubulin stained HeLa and other cell lines. (f) Time dependent cytotoxicity of 1 towards HeLa cells. Data are presented as mean±SD of three independent experiments. Tubulin staining of HeLa cells treated with as-prepared medium containing (g) 0 μM, (h) 200 μM, (i) 300 μM and (j) 400 μM of 1, and filtered medium (k) containing 400 μM of 1 for 24 h. Insets are 3× enlarged images. T98G (l, m) and PC12 (n, o) were also treated with as-prepared medium containing 0 or 400 μM of 1 for 24 h for tubulin staining DNA was counterstained blue by DAPI. Scale bar=10 μm. See also FIG. 12.
# As the major function of tubulin is to polymerize into microtubule, we carried out in vitro tubulin polymerization assay to evaluate how the molecular aggregates of 1 affect the polymerization of tubulin. We incubated tubulin heterodimers (i.e., the α- and β-tubulin heterodimer, existing almost exclusively in heterodimer form in cytoplasm) with 1 at different concentrations and monitored the formation of microtubule (FIG. 5). […] At 300 μM of 1, the polymerization curve starts to deviate slightly from the control curve. […] To confirm that the molecular aggregates of 1, but not monomeric 1, inhibit the formation of microtubules, we filtrated of the reaction mixture by a 0.22 μm PVDF filter before the addition of tubulins. […] However, filtrated reaction mixtures containing 200 to 500 μM of 1 has similar polymerization curve to that of control.
# HeLa cells [4] = assay: Tubulin staining (tubulin tracker), HeLa cells; type: cell-based; conditions: 24 h
# Experimental: Cells in exponential growth phase were seeded in glass bottomed culture chamber at 10,000 cell/mL. The cells were allowed for attachment for 24 h at 37° C., 5% CO2. The culture medium was removed, and new culture medium containing 1 at 0 or 400 μM was added. After 24 h of incubation, cells were washed with PBS buffer for 3 times and stained by Tubulin Tracker™ Green at 100 nM and DAPI 300 nM in PBS for 30 min at 37° C. in dark. The sample was rinsed three times in PBS, and the cells were kept in PBS for imaging.
# To confirm that the aggregates of 1 clusters multiple tubulin heterodimers and inhibit the formation of microtubules inside live cells, we used a tubulin tracker that selectively binds to tubulin polymers (microtubules) over tubulin monomers to stain the HeLa cells treated with 1 at different concentrations for 24 h. […] As the tubulin tracker only stains microtubule (i.e., polymerized tubulin heterodimers), the fluorescence from the cluster indicates the tubulin heterodimers in the clusters are short microtubules. […] The loss of microtubules induced by molecular aggregates of 1 explains the origins of the delay of cell migration and the arrest of cell-cycle in HeLa cells incubated with 400 or 500 μM of 1.
# T98G cells = assay: Tubulin staining (tubulin tracker), T98G cells; type: cell-based; conditions: 400 μM, 24 h
# HeLa cells [5] = assay: Degradation of 1 in HeLa cells (LC-MS); type: in vitro ADME; conditions: 12 h at 37° C.
# Experimental: FIG. 17 depicts the degradation of 1 in HeLa cells. HeLa cells were lysed after incubation with 1 at different concentrations for 12 h at 37° C. The fragmental residue of 1 detected and quantified by LC-MS was (S)-2-(2-(naphthalen-2-yl) acetamido)-3-phenylpropanoic acid.
# [6] = Influence of surfactant Triton X-100 on hydrogel of 1; type: physicochemical; conditions: 1 at 10 mM
# Experimental: FIG. 14 depicts the influence of a surfactant on self-assembly of 1. Triton X-100 was mixed with 1 (10 mM) before and after hydrogel formation. The hydrogel of 1 can tolerate up to 0.1% Triton X-100. Treated with 0.1% Triton X-100, the fibrillar aggregates of 1 tend to cross-link with each other instead of randomly dispersing, but the width of fibrillar aggregates remains unchanged.
# T1 sequence (P02550 whole entry): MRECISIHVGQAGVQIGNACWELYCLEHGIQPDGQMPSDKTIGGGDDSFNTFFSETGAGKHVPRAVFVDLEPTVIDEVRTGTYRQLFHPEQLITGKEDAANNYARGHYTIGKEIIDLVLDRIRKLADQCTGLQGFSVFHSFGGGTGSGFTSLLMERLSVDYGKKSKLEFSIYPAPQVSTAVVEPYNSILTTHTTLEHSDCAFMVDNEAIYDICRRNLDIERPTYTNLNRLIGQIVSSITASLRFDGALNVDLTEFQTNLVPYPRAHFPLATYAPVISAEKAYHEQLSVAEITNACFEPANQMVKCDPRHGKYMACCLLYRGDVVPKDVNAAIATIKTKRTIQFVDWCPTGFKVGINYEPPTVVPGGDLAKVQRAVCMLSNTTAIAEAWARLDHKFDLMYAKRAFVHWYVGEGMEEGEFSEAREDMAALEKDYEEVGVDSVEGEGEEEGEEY
# T1 sequence (P02554 whole entry): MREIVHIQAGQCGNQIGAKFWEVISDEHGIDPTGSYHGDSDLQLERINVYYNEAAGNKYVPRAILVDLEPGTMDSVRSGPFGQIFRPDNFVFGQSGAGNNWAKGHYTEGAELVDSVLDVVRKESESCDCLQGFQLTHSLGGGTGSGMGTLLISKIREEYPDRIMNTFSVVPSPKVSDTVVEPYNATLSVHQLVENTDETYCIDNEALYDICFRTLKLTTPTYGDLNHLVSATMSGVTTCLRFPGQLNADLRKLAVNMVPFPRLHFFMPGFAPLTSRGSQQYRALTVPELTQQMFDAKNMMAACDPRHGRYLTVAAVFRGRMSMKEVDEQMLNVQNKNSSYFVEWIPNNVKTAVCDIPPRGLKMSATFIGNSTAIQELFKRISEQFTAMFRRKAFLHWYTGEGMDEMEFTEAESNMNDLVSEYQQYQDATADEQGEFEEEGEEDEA
smiles,measurement,setting,value
O=C(Cc1ccc2ccccc2c1)N[C@@H](Cc1ccccc1)C(=O)N[C@@H](Cc1ccccc1)C(=O)O [Compound 1],threshold concentration for the formation of molecular aggregates,[1],320 to 340 µM
same,cell-cycle distribution,HeLa cells [2],arrest the HeLa cells at the G1/G0 phase
same,gap coverage by migrating cells,HeLa cells [3]; 300 μM,47 % of the gaps
same,gap coverage by migrating cells,HeLa cells [3]; 400 or 500 μM,27 % of the gaps
same,polymerization rate (Vmax),"tubulin heterodimers; 200 μM or 300 μM, as prepared",barely inhibits the polymerization of tubulins
same,final amount of polymers (microtubule),"tubulin heterodimers; 300 μM, as prepared",slightly decreases the amount of microtubules
same,polymerization rate (Vmax),"tubulin heterodimers; 400 or 500 μM, as prepared",drastically decreases the Vmax
same,reduction of final amount of polymers (microtubule),"tubulin heterodimers; 400 or 500 μM, as prepared",about 30 % decrease
same,Vmax and final amount of polymers after filtration,"tubulin heterodimers; 400 or 500 μM, filtered by 0.22 μm PVDF filter",only causes slight decreases in both Vmax and the final amount of polymers of tubulins
same,microtubule morphology,HeLa cells [4]; 200 μM,essentially the same morphology and distribution as those in the control cells
same,microtubule morphology,HeLa cells [4]; 300 μM,a small amount of the microtubules appear to be shorter than those in the control cells
same,microtubule morphology,HeLa cells [4]; 400 μM,large clusters surrounded by scattered microtubule fibrils
same,microtubule morphology,"HeLa cells [4]; 400 μM, medium filtered by 0.22 μm PVDF membrane","(almost) normal microtubule networks, with only few clusters"
same,microtubule morphology,T98G cells,disrupted microtubule network
same,degradation of 1,HeLa cells [5],rather fast
same,Triton X-100 tolerated by the hydrogel,[6],up to 0.1 % Triton X-100
